Source: US8859529B2, “Compounds for the treatment of inflammatory disorders” (Merck Sharp & Dohme Corp., priority 2008, dated 2014)

Experiments:
[1] = Area under the curve determinations of plasma levels in rats (rrAUC); format: in vivo; conditions: rapid rat AUC of the drug (parent) in plasma; oral 10 mg/kg, fasted rats, blood 0.5-6 h post-dosing
Experimental: To gain insight into the pharmacokinetic properties of the compounds of formula (I), plasma levels of the compounds in rats were determined according to the protocol described in Korfmacher, W. A,; Cox, K. A.; Ng, K. J.; Veals, J.; Hsieh, Y.; Wainhaus, S.; Broske, L; Prelusky, D.; Nomeir, A.; White, R. E. Rapid Commun. Mass Spectrorn, 2001, 15, 335. Briefly, rats, after an overnight fast, were dosed orally with the test compound at a dose of 10 mg/kg in a 5 mL/kg dose volume. Blood was collected at 0.5, 1, 2, 3, 4, and 6 h post-dosing. Mass spectrometry using high performance liquid chromatography was used to identify and measure the concentrations of the test compounds in the plasma at the various time points. The parent ion of each test compound was used to identify and quantitate the compounds in plasma.

[2] = tested on: TNF-α production from human whole blood; assay: Inhibition of TNF-α production from human whole blood (hWBA); format: cell-based; conditions: human whole blood diluted 1:1, 1 h pre-incubation, LPS, 3.5 h, TNF-α by ELISA; N/A = Not Active
Experimental: The compounds' ability to inhibit TACE activity can also be determined in human whole blood using the assay conditions described n Example 15 below.
Human whole blood was diluted 1:1 with serum free medium (RPMI, L-glutamine, Pen-Strep, HEPES) and incubated with a test compound in a final volume of 360 μl for 1 h at 37° C. Forty microliters of LPS (10 μg/mL) was then added. Supernatant was collected after 3.5 h incubation and the concentration of TNF-α was determined by ELISA (R&D Systems). The concentration of the test compound which inhibits 50% of the amount of TNF-α from the untreated control was determined.

Compound | PK (rrAUC) parent [1] | IC50 [2]
CCOC(=O)[C@H](C)OC(=O)OCN1C(=O)N[C@@](CN2Cc3ccc(OC)cc3C2=O)(c2cc3cnccc3o2)C1=O [Compound 63.2] | 0 µM·h | 738 nM
COc1ccc2c(c1)C(=O)N(C[C@@]1(c3cc4cnccc4o3)NC(=O)N(COC(=O)OC3CCN(C)CC3)C1=O)C2 [Compound 63.3] | 13.539 µM·h | 1400 nM
COc1ccc2c(c1)C(=O)N(C[C@@]1(c3cc4cnccc4o3)NC(=O)N(COC(=O)OCCN(C)C)C1=O)C2 [Compound 63.4] | 1.604 µM·h | 427 nM
COc1ccc2c(c1F)C(=O)N(C[C@@]1(c3cc4cc5c(c(F)c4o3)C(=O)NC5)NC(=O)N(COC(=O)c3ccccc3)C1=O)C2 [Compound 64] | 5.393 µM·h | 169 nM
COc1ccc2c(c1)C(=O)N(C[C@@]1(c3cc4ncccc4o3)NC(=O)N(COC(=O)c3ccccc3OC(C)=O)C1=O)C2 [Compound 65] | 4.426 µM·h | 560 nM
COc1ccc2c(c1)C(=O)N(C[C@@]1(c3cc4cnccc4o3)NC(=O)N(COC(=O)c3cccnc3)C1=O)C2 [Compound 67] | 3.448 µM·h | 504 nM
COc1ccc2c(c1)C(=O)N(C[C@@]1(c3cc4cnccc4o3)NC(=O)N(COC(=O)N3CCN(C)CC3)C1=O)C2 [Compound 68] | 13.539 µM·h | 1310 nM
COc1ccc2c(c1)C(=O)N(C[C@@]1(c3cc4cnccc4o3)NC(=O)N(CN(C)C(=O)C(C)(C)C)C1=O)C2 [Compound 76.2] | 0.31 µM·h | 754 nM
COc1ccc2c(c1)C(=O)N(C[C@]1(c3cc4cnccc4o3)C(=O)N(COC(=O)c3ccccc3OC(C)=O)C(=O)N1C(C)=O)C2 [Compound 83] | 0 µM·h | 931 nM
COc1ccc2c(c1)C(=O)N(C[C@]1(c3cc4cnccc4o3)C(=O)N(COC(=O)OCC3COCO3)C(=O)N1C(=O)OCC1COCO1)C2 (some centres unmarked) [Compound 86] | 0.056 µM·h | 5410 nM
